According to US10208034B2, “Quinoline derivative” (ONO PHARMACEUTICAL CO., LTD., priority 2014, dated 2019):

These compounds were tested against T1, Ba/F3 Axl (Homo sapiens, UniProt P30530) (assay: Proliferation suppression rate using mouse pro-B cell line (Ba/F3 Axl) stably expressing Axl (CellTiter-Glo)). Conditions: Ba/F3 Axl cells, 48 hours, read-out: IC50 value of proliferation suppression, Ba/F3 Axl.
T1 sequence (P30530 1-894): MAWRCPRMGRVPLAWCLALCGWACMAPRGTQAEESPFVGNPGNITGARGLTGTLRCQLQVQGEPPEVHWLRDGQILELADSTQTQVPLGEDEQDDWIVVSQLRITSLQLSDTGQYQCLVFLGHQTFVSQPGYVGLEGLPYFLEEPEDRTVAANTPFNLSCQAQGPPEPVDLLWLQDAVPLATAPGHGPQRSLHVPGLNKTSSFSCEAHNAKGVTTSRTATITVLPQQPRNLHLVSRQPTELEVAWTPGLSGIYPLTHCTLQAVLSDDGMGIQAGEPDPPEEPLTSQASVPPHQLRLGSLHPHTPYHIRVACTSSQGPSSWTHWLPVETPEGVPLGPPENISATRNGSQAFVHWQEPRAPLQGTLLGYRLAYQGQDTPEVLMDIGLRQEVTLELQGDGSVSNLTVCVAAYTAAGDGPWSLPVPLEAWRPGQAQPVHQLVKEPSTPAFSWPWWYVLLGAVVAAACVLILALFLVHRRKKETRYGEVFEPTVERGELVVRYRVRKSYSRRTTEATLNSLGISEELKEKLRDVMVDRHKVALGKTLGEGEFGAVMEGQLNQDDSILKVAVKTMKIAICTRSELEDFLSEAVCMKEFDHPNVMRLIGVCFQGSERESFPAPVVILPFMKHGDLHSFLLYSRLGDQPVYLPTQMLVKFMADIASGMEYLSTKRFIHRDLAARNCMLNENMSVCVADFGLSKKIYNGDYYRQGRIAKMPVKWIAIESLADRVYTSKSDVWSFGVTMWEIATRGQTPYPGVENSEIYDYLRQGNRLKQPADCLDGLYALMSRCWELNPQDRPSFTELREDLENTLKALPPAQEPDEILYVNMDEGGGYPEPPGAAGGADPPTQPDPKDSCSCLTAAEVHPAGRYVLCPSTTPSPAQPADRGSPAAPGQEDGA
Assay type: cell-based
Experimental: A 0.1 mmol/L DMSO solution of the test compound was dispensed into a 96-well plate, and a 3-fold dilution series was prepared using DMSO. DMSO solutions of test compounds, having various concentrations, were further 500-fold diluted with a RPMI1640 medium (containing 10% HI-FBS, 1% penicillin) and a diluted solution of the test compound having […] with respect to the final concentration was prepared. In each well of the 96-well plate (BD Biosciences) for measurement, 50 μL of a RPMI medium was added to the Blank group, 50 μL of a RPMI medium containing 0.2% DMSO was added to the medium group, and 50 μL of the diluted solution of the test compound was added to the test compound group, respectively. Ba/F3 Axl was diluted with a medium to have a density of 2×10^5 cells/mL to prepare a cell suspension. In each well of the 96-well plate for measurement, 50 μL each of the RPMI medium was added to the Blank group, and 50 μL each of the cell suspension to the medium group and the test compound group, respectively, and the groups were stood still at 37° C. at 5% CO2 for 48 hours. After standing still, Relative Light Unit (RLU) was measured by using CELLTITER-GLO (registered trademark) LUMINESCENT CELL VIABILITY ASSAY (Promega). The measurement was carried out according to the attached instruction. To each well, 100 μL each of light-emitting solution was added. The plate was stirred at room temperature for 3 min and then stool still at room temperature with light shielded for 10 min, and RLU was measured by using Microplate Reader (SpectraMax M5e, Molecular Devices). The average values of RLU of the Blank group and the medium group were respectively calculated, and the proliferation suppression rate of the test compound group was calculated. Proliferation suppression rate (%)={1−(RLU of test compound group−A)/(B−A)}×100 [Math. 2] A: average value of RLU of Blank group B: average value of RLU of medium group
A value of 50% inhibition rate (IC50 value) of the test compound was calculated from the inhibition curve based on the inhibition rate in each concentration of the test compound.

Row | GI50 | Compound
1 | 0.96 nM | COc1cc2nccc(Oc3ccc(NC(=O)c4cc(C(C)=O)cn(-c5ccccc5)c4=O)nc3)c2cc1OC [Example 21, 5-acetyl-N-{5-[(6,7-dimethoxy-4-quinolinyl)oxy]-2-pyridinyl}-2-oxo-1-phenyl-1,2-dihydro-3-pyridinecarboxamide]
2 | 0.99 nM | COc1cc2nccc(Oc3ccc(NC(=O)c4cc5ccncc5n(-c5ccccc5)c4=O)nc3)c2cc1OC [Example 28, N-{5-[(6,7-dimethoxy-4-quinolinyl)oxy]-2-pyridinyl}-2-oxo-1-phenyl-1,2-dihydro-1,7-naphthyridine-3-carboxamide]
3 | 4.2 nM | COc1cc2nccc(Oc3ccc(NC(=O)c4c5c(cn(-c6ccccc6)c4=O)C(=O)CCC5)nc3)c2cc1OC [Example 42, N-{5-[(6,7-dimethoxy-4-quinolinyl)oxy]-2-pyridinyl}-3,8-dioxo-2-phenyl-2,3,5,6,7,8-hexahydro-4-isoquinolinecarboxamide]
4 | 5.7 nM | COc1cc2nccc(Oc3ccc(NC(=O)c4cc5c(n(-c6ccccc6)c4=O)CCCNC5=O)nc3)c2cc1OC [Example 66, N-{5-[(6,7-dimethoxy-4-quinolinyl)oxy]-2-pyridinyl}-2,5-dioxo-1-phenyl-2,5,6,7,8,9-hexahydro-1H-pyrido[3,2-c]azepine-3-carboxamide]
